{
  "source": "patent US9943488B2",
  "about": "“Gamma hydroxybutyric acid granules” (DEBREGEAS ET ASSOCIES PHARMA, priority 2011, dated 2018)",
  "origin": "cited, not measured here",
  "conditions": "after oral administration",
  "data": [
    {"molecule": "O=C(O)CCCO", "note": "[GHB, Gamma-hydroxybutyric acid]", "values": [
      {"measurement": "Absolute bio-availability", "value": 25, "unit": "%"}
    ]}
  ]
}
